Assay results published in patent publication US8114638B2, “Arabinitol dehydrogenase from Neurospora crassa” (The Board of Trustees of the University of Illinois, priority 2007, dated 2012).
Where two headings read alike, the source gives them in different places. Marks after values point to notes of the source that are not given here.

How the values were obtained:
N. crassa LAD [1] = molecular target: T1, N. crassa LAD (Neurospora crassa, UniProt Q7SI09); details: for % Activity: relative to L-arabinitol = 100, 50 mM Tris pH 8.0, saturated NAD+
Description: (§1) Initial rates were determined using a Varian Cary 100 Bio UV-visible spectrophotometer (Varian) at 25° C. in 50 mM Tris (pH 8.0). […] Kinetic measurements with substrate L-arabinitol and cofactor NAD^+ were taken in a 5-by-5 matrix format, with substrate and cofactor concentrations varied from below their Km to 10-fold higher than their Km. The kinetic data were analyzed with a modified version of Cleland's program (Cleland, W. W. (1979) Statistical analysis of enzyme kinetic data, Methods Enzymol 63, 103-138.). Vmax and Km for both L-arabinitol and NAD^+ were obtained by fitting the data to a sequential ordered mechanism with NAD^+ binding first, based on the proposed mechanism for sorbitol dehydrogenase (Lindstad et al. (1992) The kinetic mechanism of sheep liver sorbitol dehydrogenase, Eur J Biochem 210, 641-647.) v=VmaxAB/(KiaKB+KAB+KBA+AB) (EQ. 1)
where v is the initial velocity, Vmax is the maximum velocity, KA and KB are the Michaelis-Menten constants for NAD+ and L-arabinitol, respectively, A and B are the concentrations of NAD+ and L-arabinitol, respectively, and Kia is the dissociation constant for NAD+.
Kinetics. The data were used to calculate the kinetic constants for various substrates by fitting the Michaelis-Menten equation using Origin 5.0. […] The data represent averages of assays performed in duplicate or triplicate on two separate occasions.

N. crassa LAD [2] = molecular target: T1, N. crassa LAD; assay: Cofactor specificity of N. crassa LAD by HPLC; type: biochemical; design: GST (glutathione S-transferase), with thrombin cleavage site (N, cleaved yes); made in house; host or cells: Escherichia coli BL21(DE3), vector pGEX-4T-3 (pGEX-lad1); details: 1 mM NAD(P)+, 25 mM L-arabinitol, 50 mM Tris pH 8.0, 20 min at 37° C., UV 340 nm
Description: The cofactor specificity of N. crassa LAD was examined by HPLC. The separation of NAD+, NADP+, NADH, and NADPH was carried out using standard methods. No discernible cross-contamination of oxidized cofactors was observed. 20 μL reaction mixtures consisting of equal parts of 1 mM NAD(P)+ and 25 mM L-arabinitol in 50 mM Tris (pH 8.0) were set up, and following addition of approximately 1 μg of enzyme, the reaction was allowed to proceed for 20 min at 37° C. […] This indicated the strong preference for NAD+ as the cofactor of N. crassa LAD.
HPLC analysis. The enzyme (1 μg) was incubated in a mixture of buffer and 25 mM L-arabinitol with 1 mM NAD(P)+ at 37° C. for 20 min. The sample was eluted on a Zorbax 3.0×150 mm C-18 (3.5 μm) column with a UV detector (Agilent 1100 series). The eluent consisted of two components: 0.1 M KH2PO4 containing 5 mM tetrabutylammonium hydrogen sulfate (pH 5.5) (buffer A) and 100% methanol (buffer B). The most suitable gradient was an initial isocratic step for 6 min at 93% buffer A, a gradient for 5 min from 7 to 30% buffer B, and a final isocratic step for 5 min at 30% buffer B.

[3] = Kinetic parameters of LAD from various source organisms; type: biochemical; details: greater
Description: as §1

[4] = LADs of other organisms, from references, cited from earlier work
[5] = 4° C. and freeze-thawing; cited from earlier work
[6] = with indicated substrate, 25° C., 50 mM Tris pH 8.0, saturated NAD+ (2 mM)

OC[C@@H](O)[C@@H](O)[C@@H](O)CO [Adonitol, adonitol]
Km (N. crassa LAD [1]; read-out: Km (mean ± SD), with indicated substrate, 25° C., 50 mM Tris pH 8.0, saturated NAD+ (2 mM)): 35 ± 3 mM | % Activity (N. crassa LAD [1]; 25° C.): 46% | kcat (mean ± SD) (N. crassa LAD [1]; [6]): 1,080 ± 30 min^−1

OC[C@@H](O)C(O)[C@H](O)CO [D-Arabinitol, D-arabinitol]
activity as substrate or cofactor of N. crassa LAD (in words) (N. crassa LAD [1]): No activity was observed | % Activity (N. crassa LAD [1]; 25° C.): 0%

OC[C@@H](O)[C@@H](O)[C@H](O)[C@H](O)CO [D-Mannitol, D-mannitol]
activity as substrate or cofactor of N. crassa LAD (in words) (N. crassa LAD [1]): No activity was observed | % Activity (N. crassa LAD [1]; 25° C.): 0%

OC[C@@H](O)[C@@H](O)[C@H](O)[C@@H](O)CO [D-Sorbitol, D-sorbitol]
activity as substrate or cofactor of N. crassa LAD (in words) (N. crassa LAD [1]): No activity was observed | % Activity (N. crassa LAD [1]; 25° C.): 0^c %

OC[C@H](O)C(O)[C@@H](O)CO [L-Arabinitol, L-arabinitol]
Km (N. crassa LAD [1]; read-out: Km value for substrate): 16 mM | % Activity (N. crassa LAD [1]; 25° C.): 100%

NC(=O)c1ccc[n+]([C@@H]2O[C@H](COP(=O)([O-])OP(=O)(O)OC[C@H]3O[C@@H](n4cnc5c(N)ncnc54)[C@H](O)[C@@H]3O)[C@@H](O)[C@H]2O)c1 [NAD, NAD+]
Km (N. crassa LAD [1]; read-out: Km for L-arabinitol (mean ± SD), with indicated coenzyme, 25° C., 50 mM Tris pH 8.0): 16 ± 3 mM | Km (N. crassa LAD [1]; read-out: Km for NAD(P) (mean ± SD), 25° C., 50 mM Tris pH 8.0, substrate L-arabinitol): 0.174 mM | kcat (mean ± SD) (N. crassa LAD [1]; with indicated coenzyme, 25° C., 50 mM Tris pH 8.0, substrate L-arabinitol): 1,206 ± 54 min^−1 | reduced cofactor peak by HPLC (in words) (N. crassa LAD [2]): a single peak (UV 340 nm) was observed that had the same retention time as authentic NADH

NC(=O)c1ccc[n+]([C@@H]2O[C@H](COP(=O)([O-])OP(=O)(O)OC[C@H]3O[C@@H](n4cnc5c(N)ncnc54)[C@H](OP(=O)(O)O)[C@@H]3O)[C@@H](O)[C@H]2O)c1 [NADP, NADP+]
activity as substrate or cofactor of N. crassa LAD (in words) (N. crassa LAD [1]; listed as NADP+): small yet detectable activity | activity as substrate or cofactor of N. crassa LAD (in words) (N. crassa LAD [1]; listed as NADP^+): very low yet detectable activity | reduced cofactor peak by HPLC (in words) (N. crassa LAD [2]): a small yet detectable peak was observed with a retention time corresponding to an authentic sample of NADPH

OC[C@@H](O)[C@H](O)[C@@H](O)CO [Xylitol, xylitol]
% Activity (N. crassa LAD [1]; 25° C.): 4.9% | kcat (mean ± SD) (N. crassa LAD [1]; [6]): 970 ± 40 min⁻¹

A. niger: L-arabinitol 4-dehydrogenase from Aspergillus niger (literature)
specific activity relative to N. crassa LAD [3]: about 3 fold | Specific activity [4]: 96 U/mg | Km ([4]; read-out: Km,L-arabinitol): 89000 µM | Km ([4]; read-out: Km,NAD+): 50 µM | stability of purified enzyme as reported (in words) [5]: highly unstable, with rapidly diminishing activity at 4° C., and complete loss of activity after freeze-thawing of the enzyme

A. oryzae: L-arabinitol 4-dehydrogenase from Aspergillus oryzae (literature)
Specific activity [4]: 0.04 U/mg

H. jecorina: L-arabinitol 4-dehydrogenase from Hypocrea jecorina (literature; two table lines from different references)
kcat [4]: 51 min⁻¹ | Km ([4]; read-out: Km,NAD+): 180 µM
